One test concerns the target T1, Calpain II (Homo sapiens, UniProt P17655).
T1 construct: from tissue; purified by a cited method
T1 sequence (P17655 1-700): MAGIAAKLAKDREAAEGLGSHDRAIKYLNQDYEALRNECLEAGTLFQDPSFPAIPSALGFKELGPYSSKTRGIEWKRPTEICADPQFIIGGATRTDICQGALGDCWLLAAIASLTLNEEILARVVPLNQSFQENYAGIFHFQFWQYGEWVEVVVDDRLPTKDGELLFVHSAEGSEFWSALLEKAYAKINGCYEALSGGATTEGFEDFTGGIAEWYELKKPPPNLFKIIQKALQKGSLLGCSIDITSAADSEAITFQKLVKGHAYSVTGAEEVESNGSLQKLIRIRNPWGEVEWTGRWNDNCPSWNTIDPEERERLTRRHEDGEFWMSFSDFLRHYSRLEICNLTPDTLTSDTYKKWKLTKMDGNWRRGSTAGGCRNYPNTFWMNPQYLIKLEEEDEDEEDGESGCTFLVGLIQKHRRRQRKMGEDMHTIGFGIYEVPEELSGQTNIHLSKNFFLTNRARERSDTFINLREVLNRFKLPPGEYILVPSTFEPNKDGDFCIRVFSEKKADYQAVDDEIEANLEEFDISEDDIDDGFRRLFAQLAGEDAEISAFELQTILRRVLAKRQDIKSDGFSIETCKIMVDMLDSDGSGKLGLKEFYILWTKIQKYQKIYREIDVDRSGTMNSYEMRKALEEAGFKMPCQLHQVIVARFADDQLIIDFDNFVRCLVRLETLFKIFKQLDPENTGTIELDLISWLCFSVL
T1 sequence (P04632 1-268 partner): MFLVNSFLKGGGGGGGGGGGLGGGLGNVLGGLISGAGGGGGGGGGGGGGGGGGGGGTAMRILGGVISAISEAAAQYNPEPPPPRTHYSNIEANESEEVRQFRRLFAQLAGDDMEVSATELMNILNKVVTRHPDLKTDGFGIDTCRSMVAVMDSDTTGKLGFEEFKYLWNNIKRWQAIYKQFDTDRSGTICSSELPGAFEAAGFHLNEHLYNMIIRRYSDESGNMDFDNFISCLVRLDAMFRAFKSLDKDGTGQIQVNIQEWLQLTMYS
The test is described as follows: Calpain II 14C-methylated casein proteolysis (Table 1A). The class given is biochemical. How it is done:
(§1) The isocoumarins are irreversible inhibitors of Calpain. We obtained IC50 values for a variety of these Calpain Inhibitors as a kinetic analysis of these compounds.
(§2) Calpains I and II were purified by the method of (Yoshimura, et al. 1983). (Kitahara 1984) provides an alternative purification scheme. Calpain II may alternatively be purchased from Sigma Chemical Co. as "Calcium Activated Neutral Protease." In this assay, purified Calpain was incubated with ^14 C-methylated casein in the presence of various Heterocyclic Compounds and the amount of acid-soluble radioactivity released by the action of Calpain was measured.

The next test has as its target T2, Calpain I (Homo sapiens, UniProt P07384).
T2 sequence (P07384 1-714): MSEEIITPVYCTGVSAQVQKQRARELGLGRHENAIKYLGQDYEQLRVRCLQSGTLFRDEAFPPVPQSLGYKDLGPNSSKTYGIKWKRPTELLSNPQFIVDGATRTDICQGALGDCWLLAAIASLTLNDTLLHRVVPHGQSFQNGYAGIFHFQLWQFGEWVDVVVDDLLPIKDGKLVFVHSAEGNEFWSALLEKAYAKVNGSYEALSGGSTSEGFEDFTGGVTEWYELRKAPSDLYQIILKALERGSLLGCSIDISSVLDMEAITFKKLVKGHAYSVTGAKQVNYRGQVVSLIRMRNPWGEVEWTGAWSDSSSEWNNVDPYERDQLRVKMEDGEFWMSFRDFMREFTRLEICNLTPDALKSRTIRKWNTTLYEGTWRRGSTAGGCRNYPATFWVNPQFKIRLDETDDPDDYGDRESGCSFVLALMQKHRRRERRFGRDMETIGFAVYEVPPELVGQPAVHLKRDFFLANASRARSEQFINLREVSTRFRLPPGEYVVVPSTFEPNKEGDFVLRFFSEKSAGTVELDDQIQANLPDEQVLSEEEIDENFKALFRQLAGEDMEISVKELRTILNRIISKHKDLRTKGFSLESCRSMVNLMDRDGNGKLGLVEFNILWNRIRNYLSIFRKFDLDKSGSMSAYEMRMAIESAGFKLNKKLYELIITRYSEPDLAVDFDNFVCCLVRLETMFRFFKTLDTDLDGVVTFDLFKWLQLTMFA
T2 sequence (P04632 1-268 partner): T1 sequence (P04632 1-268 partner)
The test is described as follows: Calpain I 14C-methylated casein proteolysis (Table 1A). It is filed as biochemical. How it is done:
as §1, §2

For the compound `N=C(N)SCCCOc1oc(=O)c2ccccc2c1Cl` [CiTprOIC, 4-chloro-3-(3-isothiureidopropoxy)isocoumarin], the 50% inhibitory concentration (IC50) at Calpain II amounted to 70 µM; against Calpain I it was 100 µM.
The corresponding values for `N=C(N)SCCCOc1oc(=O)c2cc(N)ccc2c1Cl` [NH2 -CiTPrOIC (ACITIC), 7-amino-4-chloro-3-(3-isothiureidopropoxy)isocoumarin] are 120 µM and 10 µM.

A word on the IC50: it is the point on the concentration scale where inhibition reaches its midpoint. A high value points to a need for much substance.
